The values below come from ChEMBL document CHEMBL2057118, “Synthesis and biological evaluation of novel 2,4,6-triazine derivatives as antimicrobial agents” (2012).

Values after ≈ are worked out from the molar mass of the structure shown.

Usually MIC stands for the lowest concentration found to suppress growth. A low value points to a more susceptible organism.

Holding throughout (format): functional
Assay [1] relates to Candida albicans. The assay is described as follows: Antifungal activity against Candida albicans MTCC 227 after 2 to 3 days by agar well diffusion method. For orientation: A growth-free zone around the sample is the usual read-out of agar diffusion tests.
The test system of assay [2] is Staphylococcus aureus. The experiment in a line: Antimicrobial activity against Staphylococcus aureus MTCC 96 after 24 hrs by agar well diffusion method. The following applies: for MIC: Staphylococcus aureus, MTCC 96, 24 h.
Assay [3] concerns Bacillus subtilis. The assay is described as follows: Antimicrobial activity against Bacillus subtilis MTCC 441 after 24 hrs by agar well diffusion method. The following applies: for MIC: Bacillus subtilis, MTCC 441, 24 h.
Assay [4] has as its system Aspergillus niger. The assay is described as follows: Antifungal activity against Aspergillus niger MTCC 1781 after 2 to 3 days by agar well diffusion method.
In assay [5] the test system is Escherichia coli. The experiment in a line: Antimicrobial activity against Escherichia coli MTCC 1650 after 24 hrs by agar well diffusion method. As to conditions: for MIC: Escherichia coli, MTCC 1650, 24 h.
Assay [6] relates to Pseudomonas aeruginosa. The assay is described as follows: Antimicrobial activity against Pseudomonas aeruginosa MTCC 1688 after 24 hrs by agar well diffusion method. As to conditions: for MIC: Pseudomonas aeruginosa, MTCC 1688, 24 h.

Regarding `Cl.N#Cc1ccc(Nc2nc(N3CCN(C(=O)c4ccccc4)CC3)nc(N3CCN(C(=O)c4ccccc4)CC3)n2)cn1`, the “inhibition zone (IZ)” value in assay [1] is 14 mm; in assay [2], 12 mm; in assay [3], 10 mm; in assay [4], 12 mm; in assay [5], 12 mm; in assay [6], 14 mm. In addition, the MIC came to 50 mg/L in assay [1] (Candida albicans, MTCC 227); 12.5 mg/L in assay [2]; 12.5 mg/L in assay [3]; 50 mg/L in assay [4] (Aspergillus niger, MTCC 1781); 25 mg/L in assay [5]; 25 mg/L in assay [6].

Regarding `Cl.N#Cc1ccc(Nc2nc(NC3CCCCC3)nc(NC3CCCCC3)n2)cn1`, the “inhibition zone (IZ)” value was 14 mm in assay [1]; 12 mm in assay [2]; 12 mm in assay [3]; 14 mm in assay [4]; 12 mm in assay [5]; 10 mm in assay [6]. Moreover, the MIC in assay [1] (Candida albicans, MTCC 227) stood at 12.5 mg/L; in assay [2], 6.25 mg/L; in assay [3] it was 6.25 mg/L; in assay [4] (Aspergillus niger, MTCC 1781) it was 12.5 mg/L; in assay [5], 6.25 mg/L; in assay [6], 6.25 mg/L.

Take `Cl.N#Cc1ccc(Nc2nc(N3CCNCC3)nc(N3CCNCC3)n2)cn1`: the “inhibition zone (IZ)” value in assay [1] is 14 mm; in assay [2] it was 12 mm; in assay [3] it was 12 mm; in assay [4], 14 mm; in assay [5], 12 mm; in assay [6], 10 mm. Besides, the MIC was found to be 25 mg/L in assay [1] (Candida albicans, MTCC 227); 50 mg/L in assay [2]; 50 mg/L in assay [3]; 100 mg/L in assay [4] (Aspergillus niger, MTCC 1781); 50 mg/L in assay [5]; 50 mg/L in assay [6].

Turning to `Cl.N#Cc1ccc(Nc2nc(Nc3ccc(F)cc3)nc(Nc3ccc(F)cc3)n2)cn1`, the “inhibition zone (IZ)” value in assay [1] is 12 mm; in assay [2], 12 mm; in assay [3] it was 10 mm; in assay [4], 12 mm; in assay [5], 14 mm; in assay [6] it was 12 mm. For the same molecule, the MIC in assay [1] (Candida albicans, MTCC 227) was 25 mg/L; in assay [2], 25 mg/L; in assay [3] it was 25 mg/L; in assay [4] (Aspergillus niger, MTCC 1781), 25 mg/L; in assay [5], 25 mg/L; in assay [6], 50 mg/L.

With `Cl.N#Cc1ccc(Nc2nc(NCc3ccco3)nc(NCc3ccco3)n2)cn1`, the “inhibition zone (IZ)” value in assay [1] came to 12 mm; in assay [2] it was 12 mm; in assay [3], 10 mm; in assay [4], 12 mm; in assay [5], 14 mm; in assay [6] it was 12 mm. Further, the minimal inhibitory concentration (MIC) was 12.5 mg/L in assay [1] (Candida albicans, MTCC 227); 6.25 mg/L in assay [2]; 6.25 mg/L in assay [3]; 12.5 mg/L in assay [4] (Aspergillus niger, MTCC 1781); 6.25 mg/L in assay [5]; 6.25 mg/L in assay [6].

Take `COc1cccc(Nc2nc(Nc3ccc(C#N)nc3)nc(Nc3cccc(OC)c3)n2)c1.Cl`: the “inhibition zone (IZ)” value is 12 mm in assay [1]; 12 mm in assay [2]; 10 mm in assay [3]; 12 mm in assay [4]; 14 mm in assay [5]; 12 mm in assay [6]. The MIC in assay [1] (Candida albicans, MTCC 227) turned out to be 25 mg/L; in assay [2], 6.25 mg/L; in assay [3] it was 12.5 mg/L; in assay [4] (Aspergillus niger, MTCC 1781), 25 mg/L; in assay [5], 6.25 mg/L; in assay [6], 12.5 mg/L.

As for `Cl.N#Cc1ccc(Nc2nc(N3CCN(c4ccccc4)CC3)nc(N3CCN(c4ccccc4)CC3)n2)cn1`, the “inhibition zone (IZ)” value in assay [1] came out at 14 mm; in assay [2], 12 mm; in assay [3] it was 10 mm; in assay [4], 14 mm; in assay [5], 12 mm; in assay [6], 10 mm. For the same molecule, the MIC in assay [1] (Candida albicans, MTCC 227) stood at 25 mg/L; in assay [2], 6.25 mg/L; in assay [3], 6.25 mg/L; in assay [4] (Aspergillus niger, MTCC 1781) it was 25 mg/L; in assay [5] it was 6.25 mg/L; in assay [6] it was 6.25 mg/L.

Regarding `Cl.N#Cc1ccc(Nc2nc(N3CCOCC3)nc(N3CCOCC3)n2)cn1`, the “inhibition zone (IZ)” value turned out to be 14 mm in assay [1]; 12 mm in assay [2]; 12 mm in assay [3]; 14 mm in assay [4]; 12 mm in assay [5]; 10 mm in assay [6]. The MIC in assay [1] (Candida albicans, MTCC 227) was 50 mg/L; in assay [2], 50 mg/L; in assay [3], 50 mg/L; in assay [4] (Aspergillus niger, MTCC 1781) it was 100 mg/L; in assay [5], 50 mg/L; in assay [6], 50 mg/L.

As for `CN1CCN(c2nc(Nc3ccc(C#N)nc3)nc(N3CCN(C)CC3)n2)CC1.Cl`, the “inhibition zone (IZ)” value in assay [1] worked out at 10 mm; in assay [2], 12 mm; in assay [3], 12 mm; in assay [4] it was 12 mm; in assay [5], 12 mm; in assay [6], 10 mm. The MIC was 50 mg/L in assay [1] (Candida albicans, MTCC 227); 12.5 mg/L in assay [2]; 12.5 mg/L in assay [3]; 50 mg/L in assay [4] (Aspergillus niger, MTCC 1781); 12.5 mg/L in assay [5]; 12.5 mg/L in assay [6].

Regarding `COCCNc1nc(NCCOC)nc(Nc2ccc(C#N)nc2)n1.Cl`, the “inhibition zone (IZ)” value in assay [1] came to 12 mm; in assay [2], 12 mm; in assay [3], 12 mm; in assay [4] it was 14 mm; in assay [5], 12 mm; in assay [6] it was 12 mm. Besides, the MIC in assay [1] (Candida albicans, MTCC 227) came to 12.5 mg/L; in assay [2] it was 12.5 mg/L; in assay [3], 6.25 mg/L; in assay [4] (Aspergillus niger, MTCC 1781), 12.5 mg/L; in assay [5], 6.25 mg/L; in assay [6], 6.25 mg/L.

Take `CC(=O)N1CCN(c2nc(Nc3ccc(C#N)nc3)nc(N3CCN(C(C)=O)CC3)n2)CC1.Cl`: the “inhibition zone (IZ)” value in assay [1] was 14 mm; in assay [2], 12 mm; in assay [3] it was 12 mm; in assay [4], 14 mm; in assay [5] it was 12 mm; in assay [6], 10 mm. Further, the MIC in assay [1] (Candida albicans, MTCC 227) worked out at 25 mg/L; in assay [2] it was 50 mg/L; in assay [3] it was 50 mg/L; in assay [4] (Aspergillus niger, MTCC 1781), 100 mg/L; in assay [5] it was 50 mg/L; in assay [6], 50 mg/L.

For the molecule `CN(C)CCNc1nc(NCCN(C)C)nc(Nc2ccc(C#N)nc2)n1.Cl`, the “inhibition zone (IZ)” value in assay [1] is reported as 14 mm; in assay [2], 12 mm; in assay [3], 12 mm; in assay [4], 12 mm; in assay [5], 14 mm; in assay [6] it was 12 mm. Also, the MIC worked out at 25 mg/L in assay [1] (Candida albicans, MTCC 227); 12.5 mg/L in assay [2]; 25 mg/L in assay [3]; 25 mg/L in assay [4] (Aspergillus niger, MTCC 1781); 12.5 mg/L in assay [5]; 12.5 mg/L in assay [6].

With `CN[C@@H]1[C@H](O[C@H]2[C@H](O[C@H]3[C@H](O)[C@@H](O)[C@H](N=C(N)N)[C@@H](O)[C@@H]3N=C(N)N)O[C@@H](C)[C@]2(O)C=O)O[C@@H](CO)[C@H](O)[C@H]1O` [STREPTOMYCIN], the “inhibition zone (IZ)” value in assay [2] came out at 20 mm; in assay [3] it was 22 mm; in assay [5], 22 mm; in assay [6], 24 mm. Besides, the MIC in assay [2], in assay [3], in assay [5] and in assay [6] was 6.25 mg/L (≈ 10.7 µM) in each case.

On to `Cl.N#Cc1ccc(Nc2nc(NC3CCCC3)nc(NC3CCCC3)n2)cn1`, for which the “inhibition zone (IZ)” value came to 12 mm in assay [1]; 12 mm in assay [2]; 12 mm in assay [3]; 12 mm in assay [4]; 10 mm in assay [5]; 12 mm in assay [6]. For the same molecule, the MIC was determined as 25 mg/L in assay [1] (Candida albicans, MTCC 227); 6.25 mg/L in assay [2]; 6.25 mg/L in assay [3]; 25 mg/L in assay [4] (Aspergillus niger, MTCC 1781); 6.25 mg/L in assay [5]; 12.5 mg/L in assay [6].

With `Cc1ccc(Nc2nc(Nc3ccc(C)cc3)nc(Nc3ccc(C#N)nc3)n2)cc1.Cl`, the “inhibition zone (IZ)” value is listed as 14 mm in assay [1]; 12 mm in assay [2]; 12 mm in assay [3]; 14 mm in assay [4]; 12 mm in assay [5]; 10 mm in assay [6]. Further, the MIC in assay [1] (Candida albicans, MTCC 227) is 25 mg/L; in assay [2] it was 12.5 mg/L; in assay [3] it was 25 mg/L; in assay [4] (Aspergillus niger, MTCC 1781) it was 100 mg/L; in assay [5], 12.5 mg/L; in assay [6] it was 25 mg/L.

For the molecule `Cl.N#Cc1ccc(Nc2nc(Nc3cc[nH]n3)nc(Nc3cc[nH]n3)n2)cn1`, the “inhibition zone (IZ)” value came out at 14 mm in assay [1]; 12 mm in assay [2]; 10 mm in assay [3]; 14 mm in assay [4]; 12 mm in assay [5]; 14 mm in assay [6]. Also, the MIC was found to be 12.5 mg/L in assay [1] (Candida albicans, MTCC 227); 12.5 mg/L in assay [2]; 6.25 mg/L in assay [3]; 12.5 mg/L in assay [4] (Aspergillus niger, MTCC 1781); 6.25 mg/L in assay [5]; 12.5 mg/L in assay [6].

In assay [1], NYSTATIN yielded an MIC of 6.25 mg/L and an inhibition zone (IZ) of 20 mm. In assay [4], this molecule displayed an MIC of 6.25 mg/L and an inhibition zone (IZ) of 20 mm.
